The values below come from patent publication US7183306B2, “Pyrazole derivatives” (Astellas Pharma Inc., priority 2002, dated 2007).

In turn, `COCOc1ccc(-c2cc([S+](C)[O-])nn2-c2ccc(OC)cc2)cc1` (centres unmarked) registered a melting point of 136.9 to 137.3 °C.

For `COc1ccc(-n2nc(C#N)cc2-c2ccc(OCCO)cc2)cc1`, the melting point was in the range of 91 to 92 °C.

The molecule `COc1ccc(-n2nc(-c3nc(C)no3)cc2-c2ccc(OCCO)cc2)cc1` came in with a melting point of 158 to 159 °C.

The molecule `COc1ccc(-n2nc(C#N)cc2-c2ccc(OCCO)cc2)cn1` displayed a melting point of 105 to 107 °C.

With `COc1ccc(-n2nc(C(F)(F)C(F)(F)F)cc2-c2ccc(CCO)cc2)cc1`, the melting point was in the range of 97 to 98 °C.

In turn, `COc1ccc(-n2nc(C(F)(F)F)cc2-c2ccc(CCO)cc2)cn1` gave a melting point of 89 to 92 °C.

Consider `COc1ccc(-n2nc(C3CC3)cc2-c2ccc(CCO)cc2)cc1`, for which the melting point fell in the range of 111 to 112 °C.

On to `CNC(=O)NCCc1ccc(-c2cc(C(F)(F)F)nn2-c2ccc(OC)nc2)cc1`, for which the melting point came to 149 °C.

As to `COc1ccc(-n2nc(C(F)(F)F)cc2-c2ccc(CCNC(C)=O)cc2)cc1`, the melting point is 79 to 80 °C.

Molecule `COc1ccc(-n2nc(C(F)(F)F)cc2-c2ccc(CCNS(N)(=O)=O)cc2)cn1` came in with a melting point of 114 to 115 °C.

`COc1ccc(-n2nc(C3CC3)cc2-c2ccc(OCCNS(N)(=O)=O)cc2)cc1`: the melting point is 142 to 143 °C.

In turn, `CCN(C)C(=O)c1cc(-c2ccc(CCNS(C)(=O)=O)cc2)n(-c2ccc(OC)cc2)n1` returned a melting point of 162 to 163 °C.

In the case of `COc1ccc(-n2nc(C(=O)C(C)C)cc2-c2ccc(OCCNS(C)(=O)=O)cc2)cc1`, the melting point worked out at 155 °C.

As for `COc1ccc(-n2nc(C3CC3)cc2-c2ccc(OCCNS(C)(=O)=O)cc2)cc1`, the melting point was in the range of 166 to 168 °C.

Regarding `COc1ccc(-n2nc(C(=O)C(C)C)cc2-c2ccc(OCCN)cc2)cc1.Cl`, the melting point lay in the range of 129 to 142 °C.

`COc1ccc(-n2nc(C#N)cc2-c2ccc(OCCN)cc2)cc1.Cl` had a melting point of 186 to 189 °C.

`COc1ccc(-n2nc(C(=O)C(C)C)cc2-c2ccc(OCCNC(N)=O)cc2)cc1` gave a melting point of 144 to 145 °C.

In turn, `COc1ccc(-n2nc(C(=O)C3CC3)cc2-c2ccc(OCCNC(N)=O)cc2)cc1` registered a melting point of 136 to 137 °C.

The molecule `COc1ccc(-n2nc(C(=O)C(C)C)cc2-c2ccc(OCCNC(N)=O)cc2)cn1` had a melting point of 145 to 147 °C.

The molecule `COc1ccc(-n2nc(Cl)cc2-c2ccc(OCCNS(C)(=O)=O)cc2)cc1` registered a melting point of 117 to 119 °C.

In the case of `COc1ccc(-n2nc(S(C)(=O)=O)cc2-c2ccc(OCCO)cc2)cc1`, the melting point was 96 to 99 °C.

In the case of `COc1ccc(-n2nc(S(C)(=O)=O)cc2-c2ccc(OCCN)cc2)cc1`, the melting point was in the range of 104 to 106 °C.

Molecule `CNS(=O)(=O)CCc1ccc(-c2cc(C(F)(F)F)nn2-c2ccc(OC)nc2)cc1` returned a melting point of 139 to 140 °C.

Molecule `COc1ccc(-n2nc(C(F)(F)F)cc2-c2ccc(CCC[S+](C)[O-])cc2)cn1` (centres unmarked) yielded a melting point of 92 to 93 °C.

The molecule `COc1ccc(-n2nc(C(F)(F)F)cc2-c2ccc(OCC(N)=O)cc2)cc1` displayed a melting point of 168 to 169 °C.

`COc1ccc(-n2nc(-c3nc(C)no3)cc2-c2ccc(CCO)cc2)cc1` had a melting point of 148 to 150 °C.

Molecule `COc1ccc(-n2nc(C(=O)C(C)C)cc2-c2ccc(OCCO)cc2)cc1` displayed a melting point of 95 to 96 °C.

Regarding `COc1ccc(-n2nc(C(=O)C3CC3)cc2-c2ccc(OCCO)cc2)cc1`, the melting point was in the range of 132 to 133 °C.

`COc1ccc(-n2nc(C(=O)C(C)C)cc2-c2ccc(OCCO)cc2)cn1` gave a melting point of 108 to 109 °C.

In turn, `COc1ccc(-n2nc(C(=O)C3CC3)cc2-c2ccc(OCCO)cc2)cn1` returned a melting point of 104 to 106 °C.

On to `CO/N=C(\C)c1cc(-c2ccc(CCO)cc2)n(-c2ccc(OC)cc2)n1`, for which the melting point is 82 to 86 °C.

In turn, `COc1ccc(-n2nc(OC(C)C)cc2-c2ccc(OCCNS(C)(=O)=O)cc2)cc1` showed a melting point of 167.9 to 168 °C.

Take `COc1ccc(-n2nc(OC)cc2-c2ccc(OCCO)cc2)cc1`: the melting point was 107 to 109 °C.

For `COc1ccc(-n2nc(OC(C)C)cc2-c2ccc(OCCNC(N)=O)cc2)cc1`, the melting point lay in the range of 139 to 140 °C.

`C=C(C)c1cc(-c2ccc(OCCNS(C)(=O)=O)cc2)n(-c2ccc(OC)nc2)n1` gave a melting point of 96 to 99 °C.

The molecule `COc1ccc(-n2nc(NC(=O)N(C)C)cc2-c2ccc(OCCNS(C)(=O)=O)cc2)cc1` came in with a melting point of 166 to 167 °C.

`COc1ccc(-n2nc(OC)cc2-c2ccc(OCCNS(C)(=O)=O)cc2)cc1` yielded a melting point of 103 to 104 °C.

Turning to `COCCOc1cc(-c2ccc(OCCNS(C)(=O)=O)cc2)n(-c2ccc(OC)cc2)n1`, the melting point was in the range of 94.5 to 94.7 °C.

Take `COc1ccc(-n2nc(OC(C)C)cc2-c2ccc(OCCO)cc2)cn1`: the melting point was in the range of 74 to 75 °C.

Molecule `CCOCCOc1cc(-c2ccc(OCCNS(C)(=O)=O)cc2)n(-c2ccc(OC)cc2)n1` yielded a melting point of 116.3 to 116.4 °C.

`COc1ccc(-n2nc(C(F)(F)F)cc2-c2ccc(CNS(C)(=O)=O)cc2)cn1` yielded a melting point of 125 to 126 °C.

In turn, `COc1ccc(-n2nc(C3CC3)cc2-c2ccc(OCCNS(C)(=O)=O)cc2)cn1` had a melting point of 95 to 97 °C.

`COc1ccc(-n2nc(C(=O)N3CCCCC3)cc2-c2ccc(OCCNS(C)(=O)=O)cc2)cn1` had a melting point of 158.8 to 159.1 °C.

For `CCN(C)C(=O)c1cc(-c2ccc(OCCNS(C)(=O)=O)cc2)n(-c2ccc(OC)nc2)n1`, the melting point lay within 110 to 111 °C.

`COc1ccc(-n2nc(C(=O)C(C)C)cc2-c2ccc(OCCNS(C)(=O)=O)cc2)cn1` came in with a melting point of 155.6 to 155.8 °C.

In the case of `COc1ccc(-n2nc(OCC(F)F)cc2-c2ccc(OCCNS(C)(=O)=O)cc2)cc1`, the melting point is 145 to 145.1 °C.

Consider `COc1ccc(-n2nc(C(=O)N3CCCCC3)cc2-c2ccc(CNS(C)(=O)=O)cc2)cc1`, for which the melting point was 179.3 to 179.6 °C.

`CCN(C)C(=O)c1cc(-c2ccc(CNS(C)(=O)=O)cc2)n(-c2ccc(OC)cc2)n1`: the melting point fell in the range of 149.8 to 150.8 °C.

`COc1ccc(-n2nc(C(C)C)cc2-c2ccc(CNS(C)(=O)=O)cc2)cc1` had a melting point of 130.9 to 131 °C.

Regarding `COc1ccc(-n2nc(C(=O)C(C)C)cc2-c2ccc(CNS(C)(=O)=O)cc2)cc1`, the melting point was in the range of 155.8 to 155.9 °C.

Molecule `COc1ccc(-n2nc(OC)cc2-c2ccc(CNS(C)(=O)=O)cc2)cc1` came in with a melting point of 94 to 94.3 °C.

Molecule `COc1ccc(-n2nc(OCC(F)(F)F)cc2-c2ccc(CNS(C)(=O)=O)cc2)cn1` showed a melting point of 130 to 131 °C.

In the case of `COc1ccc(-n2nc(Cl)cc2-c2ccc(CNS(C)(=O)=O)cc2)cc1`, the melting point was in the range of 68.3 to 69.3 °C.

As to `COc1ccc(-n2nc(SC)cc2-c2ccc(OCCNS(C)(=O)=O)cc2)cc1`, the melting point fell in the range of 165 to 166 °C.

In turn, `C=C(C)c1cc(-c2ccc(OCCNC(N)=O)cc2)n(-c2ccc(OC)nc2)n1` yielded a melting point of 94 to 98 °C.

In the case of `COc1ccc(-n2nc(OC)cc2-c2ccc(OCCNC(N)=O)cc2)cc1`, the melting point lay in the range of 108 to 111 °C.

`CCOc1cc(-c2ccc(OCCNC(N)=O)cc2)n(-c2ccc(OC)cc2)n1`: the melting point is 154.2 to 154.4 °C.

`CCOC(=O)c1cc(-c2ccc(OCCO[Si](C)(C)C(C)(C)C)cc2)n(-c2ccc(OC)cc2)n1` yielded a melting point of 86 to 87 °C.

On to `COc1ccc(-n2nc(C(C)(C)O)cc2-c2ccc(OCCNC(N)=O)cc2)cc1`, for which the melting point fell in the range of 147 to 152 °C.

Take `COc1ccc(-n2nc(OCC(=O)N(C)C)cc2-c2ccc(OCCO)cc2)cc1`: the melting point was in the range of 106.6 to 107.1 °C.

Take `COc1ccc(-n2nc(OC)cc2-c2ccc(OCCO)cc2)cn1`: the melting point lay in the range of 92.2 to 92.5 °C.

Molecule `COc1ccc(-n2nc(NC(=O)N(C)C)cc2-c2ccc(OCCO)cc2)cc1` showed a melting point of 167.4 to 167.6 °C.

`COc1ccc(-n2nc(NC(=O)N(C)C)cc2-c2ccc(OCCNC(N)=O)cc2)cc1` gave a melting point of 193 to 196 °C.

Take `COCCOc1cc(-c2ccc(OCCNC(N)=O)cc2)n(-c2ccc(OC)cc2)n1`: the melting point was 131 to 132 °C.

On to `CCOCCOc1cc(-c2ccc(OCCNC(N)=O)cc2)n(-c2ccc(OC)cc2)n1`, for which the melting point lay in the range of 124.1 to 124.2 °C.

Molecule `COc1ccc(-n2nc(OCC(=O)N(C)C)cc2-c2ccc(OCCNC(N)=O)cc2)cc1` showed a melting point of 223 to 227 °C.

Molecule `COc1ccc(-n2nc(OC)cc2-c2ccc(OCCNC(N)=O)cc2)cn1` showed a melting point of 192.6 to 192.7 °C.

On to `CCOc1cc(-c2ccc(OCCNC(N)=O)cc2)n(-c2ccc(OC)nc2)n1`, for which the melting point lay in the range of 133 to 138 °C.

In the case of `COc1ccc(-n2nc(C3CC3)cc2-c2ccc(OCCNC(N)=O)cc2)cn1`, the melting point was 94 to 96 °C.

Take `COc1ccc(-n2nc(C(=O)N3CCCCC3)cc2-c2ccc(OCCNC(N)=O)cc2)cc1`: the melting point lay within 152 to 152.2 °C.

`COc1ccc(-n2nc(OCC(F)(F)F)cc2-c2ccc(OCCNC(N)=O)cc2)cc1` gave a melting point of 130 to 132 °C.

`COc1ccc(-n2nc(OCC(F)F)cc2-c2ccc(OCCNC(N)=O)cc2)cn1`: the melting point lay within 146.9 to 147.3 °C.

In turn, `CCN(C)C(=O)c1cc(-c2ccc(CNC(N)=O)cc2)n(-c2ccc(OC)cc2)n1` registered a melting point of 184.7 to 185.1 °C.

The molecule `CCN(C)C(=O)c1cc(-c2ccc(CNC(N)=O)cc2)n(-c2ccc(OC)nc2)n1` registered a melting point of 172.6 to 172.8 °C.

For `COc1ccc(-n2nc(C(C)C)cc2-c2ccc(CNC(N)=O)cc2)cn1`, the melting point was in the range of 139 to 144 °C.

The molecule `COc1ccc(-n2nc(C(=O)C(C)C)cc2-c2ccc(CNC(N)=O)cc2)cn1` returned a melting point of 157 to 157.3 °C.

The molecule `COc1ccc(-n2nc(OC)cc2-c2ccc(CNC(N)=O)cc2)cc1` returned a melting point of 206 to 260.9 °C.

As to `COc1ccc(-n2nc(Cl)cc2-c2ccc(CNC(N)=O)cc2)cc1`, the melting point lay in the range of 125.5 to 126.2 °C.

With `COc1ccc(-n2nc(C(F)F)cc2-c2ccc(CCNC(N)=O)cc2)cn1`, the melting point was 194 to 196 °C.

In turn, `COc1ccc(-n2nc(C(F)(F)F)cc2-c2ccc(CNC(N)=O)cc2)cn1` displayed a melting point of 147 to 149 °C.
